# In ChEMBL document CHEMBL1157118, “Cooperative binding of a quinoline derivative to an RNA stem loop containing a dangling end” (Bioorg Med Chem Lett, 2010):
# The source made the active and inactive calls. The calls are words filed in the database; no cut-off is given here.
# Legend:
# Assay type in all cases: nucleic-acid assay
# [1] = target: Nucleic Acid; assay: Binding affinity to 3'-dangling end of RNA1 ligand binding site 3 by isothermal titration calorimetry
# [2] = target: Nucleic Acid; assay: Binding affinity to 3'-dangling end of RNA1 by fluorescence spectroscopy analysis in presence of Triton X-100
# [3] = target: Nucleic Acid; assay: Binding affinity to 3'-dangling end of RNA1 ligand binding site 1 by isothermal titration calorimetry
# [4] = system: Nucleic Acid; assay: Binding affinity to 3'-dangling end of RNA1 by UV reverse titration method
# [5] = target: Nucleic Acid; assay: Binding affinity to 3'-dangling end of RNA1 ligand binding site 2 by isothermal titration calorimetry
# [6] = target: Nucleic Acid; assay: Binding affinity to 3'-dangling end of RNA1 ligand binding site 4 by isothermal titration calorimetry
# [7] = target: Nucleic Acid; assay: Binding affinity to 3'-dangling end of RNA1 by fluorescence spectroscopy analysis in absence of Triton X-100
# [8] = system: Nucleic Acid; assay: Binding affinity to 3'-dangling end of RNA1 at 7.5 to 50 uM by CD spectroscopy
compound,measurement,setting,value
OC(CNc1ccnc2cc(Cl)ccc12)CNc1ccnc2cc(Cl)ccc12,Kd,[1],8.1 µM
same,Kd,[2],12 µM
same,Kd,[3],10.8 µM
same,Activity,[4],Active
same,Kd,[5],9.2 µM
same,Kd,[6],12.5 µM
same,Kd,[7],8.2 µM
same,Activity,[8],Active
